Test results: patent US20110282028A1, “METHOD FOR IDENTIFYING INHIBITORS OF LIPOTEICHOIC ACID SYNTHASE” (UNIVERSITY OF NEWCASTLE UPON TYNE, priority 2008, published 2011)

Columns and labels:
Format in all cases: cell-based, B. subtilis
[1] = tested on: ltaS mutant (strain 4286); assay: Sensitivity to cations, dilutions spotted on NA plates, ltaS mutant; details: 37° C.
Description: (§1) FIG. 3—Effect of metal ion concentration of viability of wild-type and ltaS mutants: A. Growth of wild-type (168) and ltaS mutant (strain 4286) at 37° C. in on NA plates without additives (left), containing 0.5 mM Mg^2+ (middle) or with addition of 0.05 mM Mn^2+ (right). B. Growth of ltaS mutant (strain 4283, left) and wild-type (strain 168, right) on minimal medium plates containing 10, 100 and 500 μM Mg^2+ as indicated.
(§2) Liquid cultures of B. subtilis strains were grown in Difco Antibiotic Medium 3 (PAB), CH medium (Nicholson & Setlow, 1990), or S-medium (Karamata & Gross, 1970) at 37° C. Nutrient agar (Oxoid) plates were used for growth on solid medium, Modified Salts Medium plates with defined Mg^2+ concentrations were prepared as described previously (Carballido-López et al., 2006). The given concentration of Mg^2+ was achieved by addition of MgSO4 to the medium. DNA manipulations and B. subtilis strains were transformed according to the method of Anagnostopoulos and Spizizen (1961) as modified by Jenkinson (1983). Selection for B. subtilis transformants was carried out on nutrient agar (Oxoid), supplemented with antibiotics, as required, with: kanamycin ([…]) chloramphenicol ([…]), erythromycin ([…] ml^−1), lincomycin ([…] ml^−1) and/or spectinomycin ([…]). […]

wild-type (168) = assay: Sensitivity to cations, dilutions spotted on NA plates, wild-type; details: 0.05 mM MnSO4 added to nutrient agar (NA), 37° C.
Description: as §1, §2

ltaS mutant [2] = assay: Zone of inhibition on solid medium, ltaS mutant compared with wild-type; details: data not shown
Source text: (§3) In the process of constructing the deletion strain, we noticed that the ltaS mutant was also hyper-sensitive to various antibiotics and lysozyme. […] In other experiments on solid medium the zone of inhibition of all antibiotics tested (kanamycin, ampicillin, vancomycin, penicillin, spectinomycin, erythromycin, lincomycin, carbenicillin) was wider for the ltaS mutant than for the wild-type (not shown). […] The general increase in sensitivity of the mutant to antibiotics and lysozyme is consistent with the notion that LTA also provides a protective layer that restricts the access of many bioactive agents to sensitive sites in the cell envelope.

ltaS mutant [3] = assay: Susceptibility of ltaS mutant to lysozyme; details: data not shown
Source text: as §3

Compound	zone of inhibition for the ltaS mutant versus the wild-type (ltaS mutant [2])	other results
O=S(=O)([O-])[O-].[Mg+2] [Mg^2+, MgSO4]		growth of the ltaS mutant ([1]; 0.5 mM Mg^2+ added to nutrient agar (NA)): no effect
O=S(=O)([O-])[O-].[Mn+2] [MnSO4]		growth of the ltaS mutant ([1]; 0.05 mM MnSO4 added to nutrient agar (NA)): abolished growth; growth of the wild-type (wild-type (168)): unaffected
CC1(C)S[C@@H]2[C@H](NC(=O)[C@H](N)c3ccccc3)C(=O)N2[C@H]1C(=O)O [ampicillin]	wider	
CC1(C)S[C@@H]2[C@H](NC(=O)C(C(=O)O)c3ccccc3)C(=O)N2[C@H]1C(=O)O (some centres unmarked) [carbenicillin]	wider	
CC[C@H]1OC(=O)[C@H](C)[C@@H](O[C@H]2C[C@@](C)(OC)[C@@H](O)[C@H](C)O2)[C@H](C)[C@@H](O[C@@H]2O[C@H](C)C[C@H](N(C)C)[C@H]2O)[C@](C)(O)C[C@@H](C)C(=O)[C@H](C)[C@@H](O)[C@]1(C)O [erythromycin]	wider	
CCC[C@@H]1C[C@@H](C(=O)N[C@@H]([C@H]2O[C@H](SC)[C@H](O)[C@@H](O)[C@H]2O)[C@@H](C)O)N(C)C1 [lincomycin]	wider	
CN[C@@H]1[C@H](O)[C@H](NC)[C@H]2O[C@@]3(O)C(=O)C[C@@H](C)O[C@H]3O[C@@H]2[C@H]1O [spectinomycin]	wider	
CN[C@H](CC(C)C)C(=O)N[C@H]1C(=O)N[C@@H](CC(N)=O)C(=O)N[C@H]2C(=O)N[C@H]3C(=O)N[C@H](C(=O)N[C@H](C(=O)O)c4cc(O)cc(O)c4-c4cc3ccc4O)[C@H](O)c3ccc(c(Cl)c3)Oc3cc2cc(c3O[C@@H]2O[C@H](CO)[C@@H](O)[C@H](O)[C@H]2O[C@H]2C[C@](C)(N)[C@H](O)[C@H](C)O2)Oc2ccc(cc2Cl)[C@H]1O [vancomycin]	wider	
lysozyme		susceptibility of the ltaS mutant to lysozyme (ltaS mutant [3]): increased susceptibility
penicillin	wider	
